Measured values from patent US20100331363A1, “TREATMENT OF MITOCHONDRIAL DISORDERS USING A FARNESYL TRANSFERASE INHIBITOR” (Link Medicine Corporation, priority 2008, published 2010).
“Also recorded” adds a separate entry of the source.

Assays:
isolated islet cells = assay: Insulin secretion assay, isolated islet cells; assay type: cell-based; details: for increase in insulin stimulation: 10 nM, high glucose conditions (15 mM)
Description: One example of such an assay is as follows: prior to glucose-induced insulin secretion, cells were cultured for two hours in RPMI containing 3 mM glucose without serum. Cells were then washed and preincubated for 30 min in modified Krebs-Ringer bicarbonate buffer (KRB) containing (in mM): 119 NaCl, 4.6 KCl, 5 NaHCO3, 2 CaCl2, 1 MgSO4, 0.15 Na2HPO4, 0.4 KH2PO4, 20 HEPES, 2 glucose, 0.05% BSA, pH 7.4. This was followed by 30 min incubation in media containing either 3 mM glucose (to simulate low glucose conditions) or 15 mM glucose (to simulate high glucose conditions). Media are treated with varying concentrations of compound (1 nM and 10 nM). Media was collected and stored at −20° C. for insulin measurement. Insulin was measured by ELISA.
In both graphs, insulin is measured in (pictogram/ml). […] The amount of insulin secretion stimulated is dependent on the concentration of compound, incubation time, and cell-type. […] This distinguishes the effect of LNK-754 from sulfonyl urea compounds, the current standard oral anti-diabetic drug which increases insulin secretion under all conditions (not desired).

[1] = system: autophagy-related gene transcripts; assay: mRNA of autophagy-related genes (Atg1, p62) in SH-SY5Y cells; assay type: cell-based, human; details: 100 nM
Description: (§1) Quantitative real-time PCR: Gene expression profiles were done by qPCR on series of known autophagy genes. RNA was extracted with Tri-reagent (Sigma), and cDNAs generated using iScript (Biorad). qPCR analysis was carried out in a 96 well plate using an iCycler (BioRad, Hercules, Calif.), and iQ SYBR Green Supermix (Biorad) according to the manufacturer's specifications.
Rapamycin is a well-characterized autophagy stimulator that acts through inhibition of mTOR, a kinase involved in nutrient signaling and regulation of cell growth and survival.

[2] = system: LC3-positive puncta (autophagosomes); assay: LC3 immunostaining (LC3-positive puncta) in SH-SY5Y cells; assay type: cell-based, human; details: 100 nM, SH-SY5Y (FIG. 8b)
Description: (§2) Cell culture and immunocytochemistry: SH-SY5Y cells were grown in DMEM medium supplemented with 10% FBS and 1% pen/strep at 37° C. and 5% CO2. Cells were differentiated with 10 μM retinoic acid for 48 hr, then treated with the either rapamycin (100 nM or 1 μM) or with 100 nM of either LNK-754-TS or Tipifarnib for 48-72 hr. Cells were then fixed with 4% paraformaldehyde and stained for LC3 (Novus biological, NB100-2331, dilution 1:800) followed by secondary Alexa-564 anti-Rabbit (A-11011).
(§3) Autophagy was measured in a neuroblastoma cell culture system by three distinct approaches: quantitation of autophagy-related mRNA's, immunofluorescence microscopy of autophagosomes, and biochemical detection of the microtubule-associated protein 1 light chain 3 (LC3) a key protein that is required for autophagosome formation. Differentiated human neuroblastoma cells (SH-SY5Y) were treated for 72 hr with LNK-754-TS (0.01-100 nM), Zarnestra® (also referred to herein as tipifarnib) (100 nM) or rapamycin (1 μM).

LC3 mRNA = LC3 mRNA (qPCR) in SH-SY5Y cells; assay type: cell-based, human
Description: as §2, §1
Such increases in LC3 mRNA levels are associated in the literature with stimulation of macroautophagy. This supports the hypothesis that at doses as low as 1 nM in this in vitro system there is stimulation of autophagy in these cells.
as §3

| Structure (SMILES) | increase in insulin stimulation (isolated islet cells; 2.5 days of incubation) | increase in insulin stimulation (isolated islet cells; 3 days of incubation) | insulin secretion under basal glucose conditions (isolated islet cells; basal glucose (3 nM)) | transcript encoding p62 ([1]; SH-SY5Y (FIG. 8e)) | mRNA levels of a set of autophagy-related genes (incl. Atg1) ([1]; SH-SY5Y (FIG. 8d)) | number of LC3-positive puncta [2] | LC3 transcript (LC3 mRNA; 0.01-100 nM, 72 hr, differentiated SH-SY5Y (FIG. 8a)) | levels of mRNA of LC3 (LC3 mRNA; between 1 and 100 nM, SH-SY5Y, 72 hours (FIG. 4)) |
| --- | --- | --- | --- | --- | --- | --- | --- | --- |
| C#Cc1cccc(-c2cc(=O)n(C)c3ccc([C@](O)(c4ccc(Cl)cc4)c4cncn4C)cc23)c1 [LNK-754, (R)-6-[(4-chlorophenyl)-hydroxyl-(1-methyl-1-H-imidazol-5-yl)-methyl]-4-(3-ethynylphenyl)-1-methyl-2-(1H)-quinonlinone] | ~75% | ~55% | not under basal glucose conditions; also recorded: does not affect basal insulin secretion |  |  |  |  |  |
| C#Cc1cccc(-c2cc(=O)n(C)c3ccc([C@](O)(c4ccc(Cl)cc4)c4cncn4C)cc23)c1 [LNK-754-TS, (R)-6-[(4-chlorophenyl)-hydroxyl-(1-methyl-1-H-imidazol-5-yl)-methyl]-4-(3-ethynylphenyl)-1-methyl-2-(1H)-quinonlinone (2S, 3S)-dihydroxybutanedioate] |  |  |  | induced upregulation; also recorded: increased | unaffected | distinct increase; also recorded: increased | upregulated; also recorded: increased | significant increases |
